This test deals with T1, full length active recombinant SYK enzyme (Homo sapiens, UniProt P43405).
T1 construct: full length active recombinant SYK enzyme (Millipore, Calif.); purchased Millipore
The test can be described thus: Inhibition of Syk tyrosine phosphorylation activity (LANCE TR-FRET kinase assay). Type of test: biochemical. As to conditions: 1 nM active SYK enzyme, 550 nM SYK-substrate, 100 μM ATP, 1 hour at room temperature. On the technique in general: TR-FRET usually uses a lanthanide donor and a delayed reading to cut background.
For `NC(=O)c1nnc(N[C@@H]2CCCC[C@@H]2N)nc1Nc1ccc([N+]2([O-])CCCCC2)c(F)c1` [Example 32, 1-(4-((3-(((1R,2S)-2-aminocyclohexyl)amino)-6-carbamoyl-1,2,4-triazin-5-yl)amino)-2-fluorophenyl)piperidine 1-oxide], the concentration for half-maximal inhibition (IC50) (as a rule, the concentration needed to halve the response being measured) was 10 to 100 nM.

As to `NC(=O)c1nnc(N[C@@H]2CCCC[C@@H]2N)nc1Nc1ccc(N2CCOCC2)c(F)c1` [Example 30, 3-(((1R,2S)-2-aminocyclohexyl)amino)-5-((3-fluoro-4-morpholinophenyl)amino)-1,2,4-triazine-6-carboxamide], the IC50 was 1 to 10 nM.

`Cn1cc(Nc2nc(N[C@@H]3CCOC[C@@H]3N)nnc2C(N)=O)cn1` [Example 79, 3-(((3R,4R)-3-aminotetrahydro-2H-pyran-4-yl)amino)-5-((1-methyl-1H-pyrazol-4-yl)amino)-1,2,4-triazine-6-carboxamide]: the IC50 lay within 100 to 1000 nM.

Turning to `NC(=O)c1nnc(N[C@@H]2CCCC(F)(F)[C@@H]2N)nc1Nc1ccc(Cl)c(Cl)c1` [Example 236, 3-(((1R,2R)-2-amino-3,3-difluorocyclohexyl)amino)-5-((3,4-dichlorophenyl)amino)-1,2,4-triazine-6-carboxamide], the IC50 lay in the range of 100 to 1000 nM.

In the case of `Cc1ccc(Nc2nc(N[C@@H]3CCCC(F)(F)[C@@H]3N)nnc2C(N)=O)cc1C` [Example 204, 3-(((1R,2R)-2-amino-3,3-difluorocyclohexyl)amino)-5-((3,4-dimethylphenyl)amino)-1,2,4-triazine-6-carboxamide], the IC50 lay in the range of 10 to 100 nM.

Turning to `COc1ccc(Nc2nc(N[C@@H]3CCCC[C@@H]3N)nnc2C(N)=O)cc1Cl` [Example 125, 3-(((1R,2S)-2-aminocyclohexyl)amino)-5-((3-chloro-4-methoxyphenyl)amino)-1,2,4-triazine-6-carboxamide], the IC50 lay within 1 to 10 nM.

Turning to `CC(C)C[C@@H](Nc1nnc(C(N)=O)c(Nc2ccc3c(cnn3C)c2)n1)C(N)=O` [Example 111, (R)-3-((1-amino-4-methyl-1-oxopentan-2-yl)amino)-5-((1-methyl-1H-indazol-5-yl)amino)-1,2,4-triazine-6-carboxamide], the IC50 lay in the range of 1 to 10 nM.

Consider `NC(=O)c1nnc(N[C@@H]2CCCC(F)(F)[C@@H]2N)nc1Nc1cnn2ccccc12` [Example 36, 3-(((1R,2R)-2-amino-3,3-difluorocyclohexyl)amino)-5-(pyrazolo[1,5-a]pyridin-3-ylamino)-1,2,4-triazine-6-carboxamide], for which the IC50 was 10 to 100 nM.

`CC[C@@H](Nc1nnc(C(N)=O)c(Nc2cc(Cl)c3ncccc3c2)n1)C(N)=O` [Example 177, (R)-3-((1-amino-1-oxobutan-2-yl)amino)-5-((8-chloroquinolin-6-yl)amino)-1,2,4-triazine-6-carboxamide]: the IC50 was in the range of 1 to 10 nM.

`COc1cc(Nc2nc(N[C@H](CC(C)C)C(N)=O)nnc2C(N)=O)ccn1` [Example 186, (R)-3-(1-amino-4-methyl-1-oxopentan-2-ylamino)-5-(2-methoxypyridin-4-ylamino)-1,2,4-triazine-6-carboxamide]: the IC50 lay within 10 to 100 nM.

Take `NC(=O)c1nnc(N[C@@H]2CCCC[C@@H]2N)nc1Nc1cc(-c2ccc(F)cc2)on1` [Example 127, 3-(((1R,2S)-2-aminocyclohexyl)amino)-5-((5-(4-fluorophenyl)isoxazol-3-yl)amino)-1,2,4-triazine-6-carboxamide]: the IC50 was 100 to 1000 nM.

Consider `Cn1ccc2cc(Nc3nc(N[C@@H]4CCCC[C@@H]4N)nnc3C(N)=O)cnc21` [Example 154, 3-(((1R,2S)-2-aminocyclohexyl)amino)-5-((1-methyl-1H-pyrrolo[2,3-b]pyridin-5-yl)amino)-1,2,4-triazine-6-carboxamide], for which the IC50 lay in the range of 1 to 10 nM.

On to `Cc1ccc(Nc2nc(N[C@@H]3CCCC[C@@H]3N)nnc2C(N)=O)cc1` [Example 8, 3-(((1R,2S)-2-aminocyclohexyl)amino)-5-(p-tolylamino)-1,2,4-triazine-6-carboxamide], for which the IC50 is 1 to 10 nM.

As for `Cn1ccc2c(Nc3nc(N[C@@H]4CCCC[C@@H]4N)nnc3C(N)=O)cccc21` [Example 81, 3-(((1R,2S)-2-aminocyclohexyl)amino)-5-((1-methyl-1H-indol-4-yl)amino)-1,2,4-triazine-6-carboxamide], the IC50 lay within 1 to 10 nM.

As to `Cc1cc(Nc2nc(N[C@@H]3CCCC[C@@H]3N)nnc2C(N)=O)sn1` [Example 101, 3-(((1R,2S)-2-aminocyclohexyl)amino)-5-((3-methylisothiazol-5-yl)amino)-1,2,4-triazine-6-carboxamide], the IC50 lay within 10 to 100 nM.

Consider `CN(C)C(=O)c1ccc(Nc2nc(N[C@@H]3CCCC[C@@H]3N)nnc2C(N)=O)cn1` [Example 65, 3-(((1R,2S)-2-aminocyclohexyl)amino)-5-((6-(dimethylcarbamoyl)pyridin-3-yl)amino)-1,2,4-triazine-6-carboxamide], for which the IC50 is > 1000 nM.

Take `Cc1ccc(Nc2nc(N[C@@H]3CCCC[C@@H]3N)nnc2C(N)=O)cc1C` [Example 207, 3-(((1R,2S)-2-aminocyclohexyl)amino)-5-((3,4-dimethylphenyl)amino)-1,2,4-triazine-6-carboxamide]: the IC50 was 1 to 10 nM.

`CC[C@@H](Nc1nnc(C(N)=O)c(Nc2csc3ncccc23)n1)C(N)=O` [Example 39, (R)-3-((1-amino-1-oxobutan-2-yl)amino)-5-(thieno[2,3-b]pyridin-3-ylamino)-1,2,4-triazine-6-carboxamide]: the IC50 lay within 1 to 10 nM.

Take `CC[C@@H](Nc1nnc(C(N)=O)c(Nc2cnc3cccnc3c2)n1)C(N)=O` [Example 146, (R)-5-((1,5-naphthyridin-3-yl)amino)-3-((1-amino-1-oxobutan-2-yl)amino)-1,2,4-triazine-6-carboxamide]: the IC50 lay in the range of 100 to 1000 nM.

`NC(=O)c1nnc(N[C@@H]2CCCC[C@@H]2N)nc1Nc1nc(-c2ccccc2)no1` [Example 138, 3-(((1R,2S)-2-aminocyclohexyl)amino)-5-((3-phenyl-1,2,4-oxadiazol-5-yl)amino)-1,2,4-triazine-6-carboxamide]: the IC50 was > 1000 nM.

`NC(=O)c1nnc(N[C@@H]2CCCC(F)(F)[C@@H]2N)nc1Nc1ccc(Cl)cc1` [Example 250, 3-(((1R,2R)-2-amino-3,3-difluorocyclohexyl)amino)-5-((4-chlorophenyl)amino)-1,2,4-triazine-6-carboxamide]: the IC50 was in the range of 100 to 1000 nM.

In the case of `NC(=O)c1nnc(N[C@@H]2CCCC[C@@H]2N)nc1Nc1ccc(-c2ncco2)cc1` [Example 131, 3-(((1R,2S)-2-aminocyclohexyl)amino)-5-((4-(oxazol-2-yl)phenyl)amino)-1,2,4-triazine-6-carboxamide], the IC50 was 1 to 10 nM.

As to `NC(=O)c1nnc(N[C@@H]2CCCC[C@@H]2N)nc1Nc1cnc2ccccc2c1` [Example 58, 3-(((1R,2S)-2-aminocyclohexyl)amino)-5-(quinolin-3-ylamino)-1,2,4-triazine-6-carboxamide], the IC50 lay within 1 to 10 nM.

Turning to `CC[C@@H](Nc1nnc(C(N)=O)c(Nc2cnc3ccc(F)cc3c2)n1)C(N)=O` [Example 123, (R)-3-((1-amino-1-oxobutan-2-yl)amino)-5-((6-fluoroquinolin-3-yl)amino)-1,2,4-triazine-6-carboxamide], the IC50 lay in the range of 10 to 100 nM.

As for `CC(C)C[C@@H](Nc1nnc(C(N)=O)c(Nc2ccc3ncccc3c2)n1)C(N)=O` [Example 53, (R)-3-((1-amino-4-methyl-1-oxopentan-2-yl)amino)-5-(quinolin-6-ylamino)-1,2,4-triazine-6-carboxamide], the IC50 lay in the range of 1 to 10 nM.

In the case of `CC[C@@H](Nc1nnc(C(N)=O)c(Nc2cnc3cc(F)ccc3c2)n1)C(N)=O` [Example 159, (R)-3-((1-amino-1-oxobutan-2-yl)amino)-5-((7-fluoroquinolin-3-yl)amino)-1,2,4-triazine-6-carboxamide], the IC50 was 10 to 100 nM.

As for `NC(=O)c1nnc(N[C@@H]2CCCC[C@@H]2N)nc1Nc1cccc(F)c1` [Example 17, 3-(((1R,2S)-2-aminocyclohexyl)amino)-5-((3-fluorophenyl)amino)-1,2,4-triazine-6-carboxamide], the IC50 fell in the range of 1 to 10 nM.

Take `NC(=O)c1nnc(N[C@@H]2CCCC[C@@H]2N)nc1Nc1cccc2ncsc12` [Example 40, 3-(((1R,2S)-2-aminocyclohexyl)amino)-5-(benzo[d]thiazol-7-ylamino)-1,2,4-triazine-6-carboxamide]: the IC50 lay within 10 to 100 nM.

On to `Cc1ccc(Nc2nc(N[C@H](CC3CC3)C(N)=O)nnc2C(N)=O)cc1C` [Example 210, (R)-3-((1-amino-3-cyclopropyl-1-oxopropan-2-yl)amino)-5-((3,4-dimethylphenyl)amino)-1,2,4-triazine-6-carboxamide], for which the IC50 lay within 1 to 10 nM.

For `NC(=O)c1nnc(N[C@H](CC(F)(F)F)C(N)=O)nc1Nc1ccc2ncccc2c1` [Example 149, (R)-3-((1-amino-4,4,4-trifluoro-1-oxobutan-2-yl)amino)-5-(quinolin-6-ylamino)-1,2,4-triazine-6-carboxamide], the IC50 was 1 to 10 nM.

For the compound `COc1cc(Nc2nc(N[C@@H]3CCCC(F)(F)[C@@H]3N)nnc2C(N)=O)ccc1Cl` [Example 230, 3-(((1R,2R)-2-amino-3,3-difluorocyclohexyl)amino)-5-((4-chloro-3-methoxyphenyl)amino)-1,2,4-triazine-6-carboxamide], the IC50 is 100 to 1000 nM.

`NC(=O)c1nnc(N[C@@H]2CCCC[C@@H]2N)nc1Nc1cnc2c(F)cccc2c1` [Example 160, 3-(((1R,2S)-2-aminocyclohexyl)amino)-5-((8-fluoroquinolin-3-yl)amino)-1,2,4-triazine-6-carboxamide]: the IC50 fell in the range of 1 to 10 nM.

Regarding `NC(=O)c1nnc(N[C@@H]2CCCC[C@@H]2N)nc1Nc1cnc2ncccc2c1` [Example 45, 5-((1,8-naphthyridin-3-yl)amino)-3-(((1R,2S)-2-aminocyclohexyl)amino)-1,2,4-triazine-6-carboxamide], the half-inhibitory concentration (IC50) fell in the range of 10 to 100 nM.
